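A five-concentration, 48-hour dose response in 96-well plates underlies each endpoint, interpolated linearly between surrounding concentrations. At the GI50, growth is halved. The concentration for full growth arrest is given as TGI.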
Legend:
Assay in all cases: NCI-60 cell line screen, 48 h
[1] = test system: A498 renal
[2] = test system: K-562 leukemia
[3] = test system: CCRF-CEM leukemia
[4] = test system: NCI-H23 lung
[5] = test system: NCI-H522 lung
[6] = test system: HCC-2998 colon
[7] = test system: SN12C renal

O=C1C(=c2ccc(=C3C(=O)c4ccc([N+](=O)[O-])cc4[N+]3=O)cc2)N([O-])c2cc([N+](=O)[O-])ccc21
GI50 [1]: > 100 µM | TGI [1]: > 100 µM | GI50 [2]: > 100 µM | TGI [2]: > 100 µM | GI50 [3]: > 100 µM | TGI [3]: > 100 µM | GI50 [4]: > 100 µM | TGI [4]: > 100 µM | GI50 [5]: > 100 µM | TGI [5]: > 100 µM | GI50 [6]: > 100 µM | TGI [6]: > 100 µM | GI50 [7]: > 100 µM | TGI [7]: > 100 µM

NC1N=Nc2ccccc21 (stereo not drawn)
TGI [2]: > 100 µM | TGI [3]: > 100 µM | TGI [4]: > 100 µM | TGI [5]: > 100 µM | TGI [6]: > 100 µM | TGI [7]: > 100 µM

COc1cccc(C=O)c1C(=O)c1cc(O)ccc1O
TGI [1]: > 63.7 µM | TGI [3]: 80.2 µM | TGI [4]: > 100 µM | TGI [6]: > 100 µM | TGI [7]: > 100 µM

C/C(CCn1[nH]c(=O)ccc1=O)=N\NC(=O)C(N)=O
TGI [1]: > 100 µM | TGI [2]: > 100 µM | TGI [4]: > 100 µM | TGI [5]: > 100 µM | TGI [6]: > 100 µM | TGI [7]: > 100 µM

O=C(CCC(=O)Nc1ccc(Cl)c(Cl)c1)CC(=O)c1ccc2ccccc2c1
TGI [1]: > 100 µM | TGI [2]: > 100 µM | TGI [3]: > 100 µM | TGI [4]: > 100 µM | TGI [5]: > 100 µM | TGI [6]: > 100 µM | TGI [7]: > 100 µM

O=C(C=Nc1ccccc1C(=O)[O-])c1cccs1.O=C(C=Nc1ccccc1C(=O)[O-])c1cccs1.[Ni+2]
TGI [1]: > 100 µM | TGI [2]: > 100 µM | TGI [3]: > 100 µM | TGI [4]: > 100 µM | TGI [5]: 55.3 µM | TGI [6]: > 100 µM | TGI [7]: > 100 µM

O=[N+]([O-])c1cc(-c2nc(=S)[nH][nH]2)ccc1O
TGI [1]: > 100 µM | TGI [2]: > 100 µM | TGI [3]: > 100 µM | TGI [4]: > 100 µM | TGI [6]: > 100 µM | TGI [7]: > 100 µM

O=C(O)CN(c1ccccc1)S(=O)(=O)c1cccc([N+](=O)[O-])c1
TGI [1]: > 100 µM | TGI [2]: > 100 µM | TGI [3]: > 100 µM | TGI [4]: > 100 µM | TGI [5]: > 100 µM | TGI [7]: > 100 µM

Nc1nc(N)c(CCCCc2ccccc2)c(C=O)n1
TGI [1]: > 100 µM | TGI [2]: 24.3 µM | TGI [3]: 40.1 µM | TGI [4]: 41.3 µM | TGI [6]: 76.6 µM | TGI [7]: 39.1 µM

COC(=O)[C@H]1COC(=S)N1C(=O)[C@@H](C)[C@H](O)C(C)C
TGI [1]: > 100 µM | TGI [2]: > 100 µM | TGI [3]: > 100 µM | TGI [4]: > 100 µM | TGI [6]: > 100 µM | TGI [7]: > 100 µM

COc1cc2c(cc1OC)C(C#N)N(C(=O)c1ccccc1)C=C2OC(=O)c1ccccc1 (stereo not drawn)
TGI [2]: > 100 µM | TGI [3]: > 100 µM | TGI [4]: > 100 µM | TGI [5]: 39.2 µM | TGI [6]: > 100 µM | TGI [7]: > 100 µM

COc1ccc2c(c1)[n+]([O-])c(-c1cccc(Cl)c1)c(N)[n+]2[O-]
TGI [1]: > 100 µM | TGI [2]: > 100 µM | TGI [3]: > 100 µM | TGI [4]: 65.6 µM | TGI [5]: 30.4 µM | TGI [7]: > 100 µM

Cc1cc(=O)[nH]c(CNC(=O)c2ccc3ccccc3c2)n1
TGI [1]: > 100 µM | TGI [2]: > 100 µM | TGI [3]: > 100 µM | TGI [4]: > 100 µM | TGI [5]: > 100 µM | TGI [6]: > 100 µM | TGI [7]: > 100 µM

O=C(NC(=Nc1ccccc1)SCSC(=Nc1ccccc1)NC(=O)c1ccco1)c1ccco1
TGI [1]: 98.2 µM | TGI [2]: > 100 µM | TGI [3]: > 100 µM | TGI [4]: 80.6 µM | TGI [5]: 91.5 µM | TGI [6]: > 100 µM | TGI [7]: > 100 µM

COc1ccc(Nc2nc3cc(C(F)(F)F)ccc3nc2-c2ccccc2)cc1OC
TGI [1]: > 100 µM | TGI [2]: > 100 µM | TGI [3]: > 100 µM | TGI [4]: > 100 µM | TGI [5]: > 100 µM | TGI [6]: > 100 µM | TGI [7]: > 100 µM

O=C(Cc1ccccc1[N+](=O)[O-])C(CO)c1ccccc1[N+](=O)[O-] (stereo not drawn)
TGI [1]: > 100 µM | TGI [2]: > 100 µM | TGI [3]: > 100 µM | TGI [4]: > 100 µM | TGI [5]: 70.5 µM | TGI [6]: > 100 µM | TGI [7]: > 100 µM

COC(=O)C1CSC(c2csc(CCN)n2)=N1 (stereo not drawn)
TGI [2]: > 100 µM | TGI [3]: > 100 µM | TGI [4]: > 100 µM | TGI [5]: > 100 µM | TGI [6]: > 100 µM | TGI [7]: > 100 µM

O=C(COc1ccccc1Cl)N1N=C(c2ccccc2)CC1(O)c1ccccc1 (stereo not drawn)
TGI [2]: 54.9 µM | TGI [4]: 25.1 µM | TGI [5]: > 100 µM | TGI [6]: 33.6 µM | TGI [7]: 25.6 µM

N#CCCN(CCC#N)c1ccc(/C=C(/NC(=O)c2cc([N+](=O)[O-])ccc2Cl)C(=O)NN)cc1
TGI [1]: > 100 µM | TGI [2]: > 100 µM | TGI [3]: > 100 µM | TGI [4]: > 100 µM | TGI [5]: > 100 µM | TGI [6]: > 100 µM | TGI [7]: > 100 µM

N/C=N/S(=O)(=O)c1ccc(NC(=O)COC(=O)c2cccc3c(=O)c4ccccc4[nH]c23)cc1
TGI [2]: > 100 µM | TGI [3]: > 100 µM | TGI [4]: > 100 µM | TGI [5]: > 100 µM | TGI [7]: > 100 µM

c1ccc2c(c1)SC(=C1Sc3ccccc3S1)S2
TGI [2]: > 100 µM | TGI [3]: > 100 µM | TGI [4]: > 100 µM | TGI [6]: > 100 µM | TGI [7]: > 100 µM

[O-]/N=[N+](/[O-])C1CCCCC1=[N+]1CCOCC1 (stereo not drawn)
TGI [1]: > 100 µM | TGI [2]: > 100 µM | TGI [3]: > 100 µM | TGI [4]: > 100 µM | TGI [5]: > 100 µM | TGI [7]: > 100 µM

OCC1OC2c3ccccc3COC2C1OCc1ccccc1 (stereo not drawn)
TGI [2]: > 100 µM | TGI [4]: > 100 µM | TGI [5]: > 100 µM | TGI [6]: > 100 µM | TGI [7]: > 100 µM

— PubChem BioAssay (NCI)
